Experimental findings from ChEMBL document CHEMBL5576131, “Atropisomerism Observed in Galactose-Based Monosaccharide Inhibitors of Galectin-3 Comprising 2-Methyl-4-phenyl-2,4-dihydro-3H-1,2,4-triazole-3-thione” (J Med Chem, 2024) are described below.

The nature of data set [1]: Permeability of the compound at pH 7.4 incubated for 4 hrs by PAMPA. The class given is ADME. The conditions noted are these: for Papp at 4 h: PAMPA, pH 7.4, read-out: permeability; for permeability: pampa, pH 7.4, 4 h.
The target of data set [2] is Galectin-3 (Mus musculus, UniProt P16110). Nature of the data set: Inhibition of his-tagged N-terminal recombinant mouse Gal-3 preincubated for 30 mins followed by Biotin-ASF addition and measured after 1 hr by HTRF assay. A general note: TR-FRET usually uses a lanthanide donor and a delayed reading to cut background.
Galectin-3 (Mus musculus, UniProt P16110), sequence (P16110 whole entry): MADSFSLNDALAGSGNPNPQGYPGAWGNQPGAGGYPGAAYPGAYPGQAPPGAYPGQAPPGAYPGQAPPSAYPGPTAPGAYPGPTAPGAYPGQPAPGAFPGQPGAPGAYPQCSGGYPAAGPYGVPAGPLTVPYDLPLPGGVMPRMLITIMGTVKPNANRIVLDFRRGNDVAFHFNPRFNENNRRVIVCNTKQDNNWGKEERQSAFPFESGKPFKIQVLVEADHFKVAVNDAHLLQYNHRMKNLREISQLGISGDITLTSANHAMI
Data set [3] is described as follows: Permeability of the compound at pH 5.5 incubated for 4 hrs by PAMPA. The class given is ADME. The conditions noted are these: for Papp at 4 h: PAMPA, pH 5.5, read-out: permeability.
Data set [4] in a line: Permeability of the compound across apical to basolateral side in human Caco-2 cells assessed as drug recovery at pH 7.4 incubated for 2 hrs by LC-MS/MS analysis. The format is ADME, cell-based. The conditions noted are these: Caco-2, pH 7.4, read-out: Drug recovery.
Data set [5] in a line: Permeability of the compound in human Caco-2 cells across apical to basolateral side at pH 7.4 incubated for 2 hrs by LC-MS/MS analysis. The class given is ADME, cell-based. The conditions noted are these: Caco-2, pH 7.4, read-out: permeability. Background: Passage across Caco-2 layers is used to estimate intestinal permeability.
For data set [6], the target named is Galectin-3 (Homo sapiens, UniProt P17931). Nature of the data set: Inhibition of his-tagged N-terminal recombinant human Gal-3 preincubated for 30 mins followed by Biotin-ASF addition and measured after 1 hr by HTRF assay.
Galectin-3 (Homo sapiens, UniProt P17931), sequence (P17931 whole entry): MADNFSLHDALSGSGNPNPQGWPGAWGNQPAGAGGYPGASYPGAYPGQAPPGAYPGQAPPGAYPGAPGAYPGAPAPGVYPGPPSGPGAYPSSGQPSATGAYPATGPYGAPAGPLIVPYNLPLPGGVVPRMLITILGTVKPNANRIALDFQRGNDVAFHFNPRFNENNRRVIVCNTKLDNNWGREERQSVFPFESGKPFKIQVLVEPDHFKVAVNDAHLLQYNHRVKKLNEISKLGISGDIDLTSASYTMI
Data set [7] is described as follows: Permeability of the compound across basolateral to apical side in human Caco-2 cells assessed as drug recovery at pH 7.4 incubated for 2 hrs by LC-MS/MS analysis. The format is ADME, cell-based. The note with it: Caco-2, pH 7.4, read-out: Drug recovery.
Data set [8] in a line: Permeability of the compound in human Caco-2 cells across basolateral to apical side at pH 7.4 incubated for 2 hrs by LC-MS/MS analysis. The class given is ADME, cell-based. The conditions noted are these: Caco-2, pH 7.4, read-out: permeability.
Data set [9] is described as follows: Tmax in male C57BL/6 mouse at 10 mg/kg, po measured after 24 hrs by UPLC/MS/MS analysis. The format is ADME, organism-based. The note with it: in vivo.
For another data set, the target named is Galectin-1 (Homo sapiens, UniProt P09382). Nature of the data set: Inhibition of his-tagged N-terminal human Gal-1 preincubated for 30 mins followed by Biotin-ASF addition and measured after 1 hr by HTRF assay.
Galectin-1, sequence (P09382 whole entry): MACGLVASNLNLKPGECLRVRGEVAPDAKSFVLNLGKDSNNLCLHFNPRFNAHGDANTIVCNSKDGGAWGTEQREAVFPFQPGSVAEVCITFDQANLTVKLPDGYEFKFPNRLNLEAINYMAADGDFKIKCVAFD
For another data set, the target named is Galectin-9 (Homo sapiens, UniProt O00182). Nature of the data set: Inhibition of his-tagged N-terminal human Gal-9 preincubated for 30 mins followed by Biotin-ASF addition and measured after 1 hr by HTRF assay.
Galectin-9, sequence (O00182 whole entry): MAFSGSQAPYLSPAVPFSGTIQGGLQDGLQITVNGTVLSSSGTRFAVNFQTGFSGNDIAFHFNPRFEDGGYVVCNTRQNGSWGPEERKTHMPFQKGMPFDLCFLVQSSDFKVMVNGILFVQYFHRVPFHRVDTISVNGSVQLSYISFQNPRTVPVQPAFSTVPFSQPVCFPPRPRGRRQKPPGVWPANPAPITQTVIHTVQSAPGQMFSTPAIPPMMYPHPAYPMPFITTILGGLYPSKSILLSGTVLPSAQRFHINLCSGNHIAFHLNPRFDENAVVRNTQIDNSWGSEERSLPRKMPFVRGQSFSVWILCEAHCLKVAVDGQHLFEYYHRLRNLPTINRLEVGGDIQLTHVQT
Data set [10] in a line: Cmax in male C57BL/6 mouse at 10 mg/kg, po measured after 24 hrs by UPLC/MS/MS analysis. The format is ADME, organism-based. The note with it: in vivo.
The nature of data set [11]: AUC (0 to 24 hrs) in male C57BL/6 mouse at 10 mg/kg, po measured after 24 hrs by UPLC/MS/MS analysis. The format is ADME, organism-based. The note with it: in vivo.

Broadly, the IC50 is the concentration that gives 50% inhibition. As usually defined, the Tmax is the time from dosing to the highest level. What is called Cmax is the peak of the concentration-time curve. Usually AUC(0-t) stands for exposure summed from dosing to a finite time, without extrapolation to infinity. A high value points to high exposure.

With `OC[C@H]1O[C@@H](c2nncn2-c2cc(Cl)ccc2C(F)(F)F)[C@H](OCC(F)(F)C(F)F)[C@@H](n2cc(-c3ccc(Br)c(F)c3F)nn2)[C@H]1O`, the Papp at 4 h was found to be 88 ×10⁻⁶ cm/s in data set [1] and 68 ×10⁻⁶ cm/s in data set [3]. In addition, the IC50 at Galectin-3 [2] is 110 nM.

`OC[C@H]1O[C@@H](c2n[nH]c(=S)n2-c2cc(Cl)ccc2OC(F)(F)F)[C@H](O)[C@@H](n2cc(-c3ccc(Cl)c(F)c3F)nn2)[C@H]1O` (stereo in doubt; 16): the recovery at 2 h is 67% in data set [4] and 81% in data set [7]. The Papp A→B at 2 h in [5] is < 1.5 ×10⁻⁶ cm/s. Further, the IC50 on Galectin-3 [6] was 7 nM; at Galectin-3 [2], 50 nM. Further, the Papp at 4 h in [1] was determined as 0.2 ×10⁻⁶ cm/s; in [3], 1.1 ×10⁻⁶ cm/s. The Papp B→A at 2 h in data set [8] came out at 3.2 ×10⁻⁶ cm/s.

With `CO[C@@H]1[C@@H](n2cc(-c3ccc(Br)c(F)c3)nn2)[C@@H](O)[C@@H](CO)O[C@H]1c1nncn1-c1cc(Cl)ccc1C(F)(F)F`, the IC50 at Galectin-3 [6] turned out to be 22 nM; on Galectin-3 [2] it was 71 nM. The Papp at 4 h was 22 ×10⁻⁶ cm/s in data set [1] and 20 ×10⁻⁶ cm/s in [3].

Turning to `Cc1nc([C@@H]2O[C@H](CO)[C@H](O)[C@H](n3cc(-c4cc(F)c(Cl)c(F)c4)nn3)[C@H]2O)n(-c2cc(Cl)ccc2C(F)(F)F)n1`, the Tmax in [9] came to 3 h.

As to `OC[C@H]1O[C@@H](c2nncn2-c2cc(Cl)ccc2Cl)[C@H](O)[C@@H](n2cc(-c3cc(F)c(Cl)c(F)c3)nn2)[C@H]1O`, the figures for the Papp at 4 h in [1] and in data set [3] were 1.7 ×10⁻⁶ cm/s and 3.6 ×10⁻⁶ cm/s, respectively. The IC50 at Galectin-3 [2] was 350 nM.

Regarding `OC[C@H]1O[C@@H](c2nncn2-c2cc(Cl)ccc2C(F)(F)F)[C@H](O)[C@@H](n2cc(-c3ccc(Br)c(F)c3F)nn2)[C@H]1O`, the Papp at 4 h in [1] and in data set [3] was 7 ×10⁻⁶ cm/s each time. Also, the IC50 on Galectin-3 [2] is 69 nM.

Consider `CO[C@@H]1[C@@H](n2cc(-c3cc(F)c(Cl)c(F)c3)nn2)[C@@H](O)[C@@H](CO)O[C@H]1c1nncn1-c1cc(Cl)ccc1C(F)(F)F`, for which the IC50 against Galectin-1 was found to be 7000 nM; at Galectin-3 [2] it was 160 nM; against Galectin-9 it was 7 µM.

On to `Cc1nnc([C@@H]2O[C@H](CO)[C@H](O)[C@H](n3cc(-c4cc(F)c(Cl)c(F)c4)nn3)[C@H]2O)n1-c1cc(Cl)ccc1C(F)(F)F` (stereo in doubt; 5), for which the IC50 at Galectin-3 [6] came to 1300 nM; at Galectin-3 [2] it was 7000 nM. The permeability in data set [1] (4 h) is on record as 16 nm/s.

In data set [1] (4 h), `Cc1nnc([C@@H]2O[C@H](CO)[C@H](O)[C@H](n3cc(-c4cc(F)c(Cl)c(F)c4)nn3)[C@H]2O)n1-c1cc(Cl)ccc1C(F)(F)F` (stereo in doubt; 4) yielded a permeability of 44 nm/s. The results for the IC50 against Galectin-1, on Galectin-3 [2] and at Galectin-9 were 2500 nM, 67 nM and 4 µM, respectively.

Take `OC[C@H]1O[C@@H](c2n[nH]c(=S)n2-c2cc(Cl)ccc2OC(F)(F)F)[C@H](O)[C@@H](n2cc(-c3ccc(Cl)c(F)c3F)nn2)[C@H]1O` (stereo in doubt; 17): the IC50 at Galectin-3 [6] was 70 nM; at Galectin-3 [2], 720 nM. The compound further had a permeability in data set [1] of 2 nm/s.

Take `Cn1nc([C@@H]2O[C@H](CO)[C@H](O)[C@H](n3cc(-c4ccc(Br)c(F)c4F)nn3)[C@H]2O)n(-c2cc(Cl)ccc2C(F)(F)F)c1=S` (stereo in doubt; 20): the Tmax in [9] worked out at 3 h. Besides, the recovery at 2 h in data set [4] stood at 59%; in [7], 80%. In addition, the Papp A→B at 2 h in [5] was < 1.5 ×10⁻⁶ cm/s. Moreover, the concentration in data set [10] peaked (Cmax) at 1900 nM. The compound further displayed a permeability in [1] (4 h) of 86 nm/s. Also, the IC50 turned out to be 2400 nM at Galectin-1, 40 nM on Galectin-3 [2] and 7.2 µM at Galectin-9. Besides, in data set [3], the Papp at 4 h was found to be 12 ×10⁻⁶ cm/s. The same compound came in with an AUC(0-t) at 24 h in data set [11] of 12 µM·h. Also, in data set [8], the Papp B→A at 2 h is 15 ×10⁻⁶ cm/s.

On to `OC[C@H]1O[C@@H](c2n[nH]c(=S)n2-c2cc(Cl)ccc2C(F)(F)F)[C@H](O)[C@@H](n2cc(-c3ccc(Br)c(F)c3F)nn2)[C@H]1O` (stereo in doubt; 19), for which the IC50 at Galectin-3 [6] amounted to 76 nM; at Galectin-3 [2], 1000 nM. Further, the permeability in data set [1] (4 h) was 2 nm/s.

For the compound `OC[C@H]1O[C@@H](c2ncnn2-c2ccc(Cl)c(Cl)c2)[C@H](O)[C@@H](n2cc(-c3cc(F)c(F)c(F)c3)nn2)[C@H]1O`, the Tmax in data set [9] was determined as 3 h. Further, the Cmax in data set [10] is 410 nM. This compound came in with an AUC(0-t) at 24 h in data set [11] of 1.8 µM·h.

Regarding `OC[C@H]1O[C@@H](c2nncn2-c2cc(Cl)ccc2OC(F)(F)F)[C@H](O)[C@@H](n2cc(-c3ccc(Cl)c(F)c3F)nn2)[C@H]1O`, the IC50 on Galectin-3 [6] was 13 nM; at Galectin-3 [2], 100 nM. Also, in [1], the Papp at 4 h turned out to be 27 ×10⁻⁶ cm/s.

Consider `CO[C@@H]1[C@@H](n2cc(-c3ccc(Cl)c(F)c3F)nn2)[C@@H](O)[C@@H](CO)O[C@H]1c1nncn1-c1cc(Cl)ccc1OC(F)(F)F`, for which the Tmax in [9] was found to be 3 h. In data set [10], this compound registered a Cmax of 3000 nM. In addition, the figures for the Papp at 4 h in data set [1] and in data set [3] were 49 ×10⁻⁶ cm/s and 54 ×10⁻⁶ cm/s, respectively. Further, the results for the IC50 against Galectin-1, on Galectin-3 [2] and at Galectin-9 were 2000 nM, 100 nM and 2.4 µM, respectively. This compound gave an AUC(0-t) at 24 h in data set [11] of 16 µM·h.

`CO[C@@H]1[C@@H](n2cc(-c3ccc(Br)c(F)c3F)nn2)[C@@H](O)[C@@H](CO)O[C@H]1c1nncn1-c1cc(Cl)ccc1C(F)(F)F`: the IC50 on Galectin-3 [6] came out at 9 nM; at Galectin-3 [2], 52 nM. The Papp at 4 h in data set [1] was found to be 28 ×10⁻⁶ cm/s; in data set [3], 33 ×10⁻⁶ cm/s.

For the compound `Cn1nc([C@@H]2O[C@H](CO)[C@H](O)[C@H](n3cc(-c4ccc(Br)c(F)c4F)nn3)[C@H]2O)n(-c2cc(Cl)ccc2C(F)(F)F)c1=S` (stereo in doubt; 21), the permeability in [1] (4 h) is listed as 280 nm/s; in [3] (pampa, pH 5.5, 4 h, 4 h) it was 220 nm/s. The IC50 on Galectin-3 [2] worked out at 3800 nM.

With `OC[C@H]1O[C@@H](c2nncn2-c2cc(Cl)ccc2C(F)(F)F)[C@H](O)[C@@H](n2cc(-c3ccc(Cl)c(F)c3)nn2)[C@H]1O`, the Papp at 4 h came to 2.1 ×10⁻⁶ cm/s in data set [1] and 1.8 ×10⁻⁶ cm/s in [3]. Also, the IC50 at Galectin-3 [2] is 100 nM.

For `OC[C@H]1O[C@H](Sc2ccc(Cl)c(Cl)c2)[C@H](O)[C@@H](n2cc(-c3cc(F)c(F)c(F)c3)nn2)[C@H]1O`, the Tmax in [9] was 7 h. Moreover, in [10], the Cmax came to 6300 nM. In [11], this compound gave an area under the curve AUC(0-t) at 24 h of 84 µM·h.

`OC[C@H]1O[C@@H](c2n[nH]c(=S)n2-c2cc(Cl)ccc2C(F)(F)F)[C@H](O)[C@@H](n2cc(-c3ccc(Br)c(F)c3F)nn2)[C@H]1O` (stereo in doubt; 18): the figures for the IC50 at Galectin-3 [6] and at Galectin-3 [2] were 6.9 nM and 25 nM, respectively. In [1], the Papp at 4 h stood at 0.1 ×10⁻⁶ cm/s.

In the case of `OC[C@H]1O[C@@H](c2nncn2-c2cc(Cl)ccc2OC(F)(F)F)[C@H](O)[C@@H](n2cc(-c3ccc(Br)c(F)c3F)nn2)[C@H]1O`, the Papp at 4 h was 18 ×10⁻⁶ cm/s in [1] and 21 ×10⁻⁶ cm/s in data set [3]. Moreover, at Galectin-3 [2], the IC50 is 62 nM.
